Laboratory results: the supplement of paper PMC11150407

Columns and labels:
Test in all cases: cell viability relative to vehicle (fraction); higher = less inhibition
Conditions in all cases: 72 h
PR#002 = system: PR#002
Experimental: (§1)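 Primary 3q26 AML patient cells were treated for 72 h with AR-42, belinostat or entinostat (0.01-2 uM, 2-fold dilutions), in duplicate. Viability was measured by ATP-based luminescence and normalised to vehicle, given as a fraction.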

PR#003 = system: PR#003
Experimental: as §1

PR#0024 = system: PR#0024
Experimental: as §1

PR#005 = system: PR#005
Experimental: as §1

PR#006 = system: PR#006
Experimental: as §1

PR#007 = system: PR#007
Experimental: as §1

PR#004 = system: PR#004
Experimental: as §1

PR#0023 = system: PR#0023
Experimental: as §1

PR#008 = system: PR#008
Experimental: as §1

CC(C)[C@H](C(=O)Nc1ccc(C(=O)NO)cc1)c1ccccc1 [AR-42]
cell viability
Conditions	PR#002	PR#003	PR#004	PR#005	PR#006	PR#007	PR#008	PR#0023	PR#0024
0.016 µM	1	1.01	0.809	0.962	0.936	0.988	0.553	0.955	0.953
0.031 µM	0.938	0.853	0.646	0.977	0.904	1.0115	0.434	0.984	0.81
0.0625 µM	0.855	0.797	0.417	0.833	0.902	1.01	0.3	0.675	0.67
0.125 µM	0.792	0.503	0.248	0.991	0.552	0.872	0.199	0.785	0.4575
0.25 µM	0.508	0.247	0.132	0.928	0.367	0.748	0.0865	0.441	0.259
0.5 µM	0.124	0.0952	0.0759	0.239	0.104	0.443	0.0168	0.4779	0.127
1 µM	0.0233	0.0399	0.0688	0.0777	0.0486	0.155	0.0142	0.116	0.0553
2 µM	0.01971	0.0313	0.0591	0.0322	0.0395	0.0706	0.016	0.0583	0.0347

O=C(/C=C/c1cccc(S(=O)(=O)Nc2ccccc2)c1)NO [Belinostat]
cell viability
Conditions	PR#002	PR#003	PR#004	PR#005	PR#006	PR#007	PR#008	PR#0023	PR#0024
0.016 µM	1.22	1.12	0.978	0.798	1.048	0.981	0.643	0.933	0.97
0.031 µM	1.08	1.12	0.967	0.698	0.987	0.961	0.642	0.917	0.882
0.0625 µM	1.01	0.9713	0.7834	0.979	0.941	0.897	0.468	0.893	0.77
0.125 µM	1.01	0.874	0.577	0.871	0.729	0.854	0.391	0.8339	0.609
0.25 µM	0.902	0.562	0.326	0.524	0.481	0.717	0.247	0.777	0.363
0.5 µM	0.492	0.3	0.125	0.404	0.177	0.4339	0.0828	0.611	0.184
1 µM	0.114	0.0978	0.0685	0.108	0.0585	0.173	0.0197	0.325	0.0781
2 µM	0.0243	0.0452	0.0602	0.0361	0.035	0.0759	0.0115	0.0655	0.0477

Nc1ccccc1NC(=O)c1ccc(CNC(=O)OCc2cccnc2)cc1 [Entinostat]
cell viability
Conditions	PR#002	PR#003	PR#004	PR#005	PR#006	PR#007	PR#008	PR#0023	PR#0024
0.016 µM	1.02	0.949	0.78	1.04	0.961	0.934	0.764	0.932	1.08
0.031 µM	0.94	1	0.673	0.625	0.813	0.903	0.691	0.923	1.02
0.0625 µM	0.869	0.91	0.472	0.534	0.731	0.938	0.49	0.806	0.924
0.125 µM	0.736	0.735	0.298	0.437	0.555	0.918	0.303	0.7626	0.827
0.25 µM	0.593	0.536	0.183	0.475	0.434	0.778	0.186	0.6886	0.682
0.5 µM	0.396	0.281	0.1099	0.203	0.2018	0.666	0.0771	0.589	0.516
1 µM	0.0907	0.115	0.0717	0.06904	0.115	0.345	0.0229	0.423	0.285
2 µM	0.0309	0.0591	0.0662	0.0415	0.065	0.168	0.00956	0.183	0.14
